One test deals with HCC1806. The experiment in a line: HCC1806 cell line Proliferation assay. The format is functional, Homo sapiens. As to conditions: Compound concentration 10 uM; time 5 day.
In the next test the test system is NCI-H1930. The experiment in a line: H1930 cell line Proliferation assay. The class given is functional, Homo sapiens. To be noted: Compound concentration 10 uM; time 4 day.
The test system of a further test is Calu-6. The experiment in a line: Calu 6 cell line Proliferation assay. The class given is functional, Homo sapiens. As to conditions: Compound concentration 10 uM; time 3 day.
A further test concerns NCI-H596. Put plainly: H596 cell line Proliferation assay. The format is functional, Homo sapiens. As to conditions: Compound concentration 10 uM; time 3 day.
The subject of another test is NCI-H1417. The experiment in a line: H1417 cell line Proliferation assay. The class given is functional, Homo sapiens. As to conditions: Compound concentration 10 uM; time 4 day.
Another test deals with DOHH-2. Put plainly: DoHH2 cell line Proliferation assay. The format is functional, Homo sapiens. To be noted: Compound concentration 10 uM; time 3 day.
Test [1] addresses Histone acetyltransferase type B catalytic subunit (Homo sapiens) (UniProt O14929). Put plainly: HAT1 (HAT) CEREP ligand profiling. To be noted: Compound concentration 10.0 uM.
For a further test, the system named is Malme-3M. The experiment in a line: Malme3M cell line Proliferation assay. The class given is functional, Homo sapiens. As to conditions: Compound concentration 10 uM; time 5 day.
In a further test the test system is MOLT-4. The experiment in a line: MOLT-4 cell line Proliferation assay. The format is functional, Homo sapiens. As to conditions: Compound concentration 10 uM; time 3 day.
Another test relates to HCC38. The experiment in a line: HCC38 cell line Proliferation assay. The class given is functional, Homo sapiens. To be noted: Compound concentration 10 uM; time 5 day.
Another test has as its system NCI-H1693. Put plainly: H1693 cell line Proliferation assay. The class given is functional, Homo sapiens. As to conditions: Compound concentration 10 uM; time 3 day.
A further test concerns RCK8. Put plainly: RCK8 cell line Proliferation assay. The class given is functional, Homo sapiens. As to conditions: Compound concentration 10 uM; time 3 day.
A further test has as its system SK-MEL-2. Put plainly: SKMEL2 cell line Proliferation assay. The class given is functional, Homo sapiens. As to conditions: Compound concentration 10 uM; time 5 day.
The next test relates to A-375. The experiment in a line: A375 cell line Proliferation assay. The class given is functional, Homo sapiens. As to conditions: Compound concentration 10 uM; time 5 day.
For another test, the system named is NCI-H146. Put plainly: H146 cell line Proliferation assay. The format is functional, Homo sapiens. As to conditions: Compound concentration 10 uM; time 4 day.
The test system of the next test is OCI-Ly3. Put plainly: OCI Ly3 cell line Proliferation assay. The class given is functional, Homo sapiens. To be noted: Compound concentration 10 uM; time 3 day.
The next test concerns OCI-Ly1. Put plainly: OCI Ly1 cell line Proliferation assay. The class given is functional, Homo sapiens. As to conditions: Compound concentration 10 uM; time 3 day.
The target in test [2] is Adenosine receptor A1 (Homo sapiens) (UniProt P30542). Put plainly: A1 (h) CEREP ligand profiling. As to conditions: filed as antagonist, Compound concentration 10.0 uM.
Test [3] addresses Cyclin-dependent kinase-like 3 (Homo sapiens) (UniProt Q8IVW4). As to conditions: Compound concentration 1000.0 nM.
For test [4], the target named is Cholecystokinin receptor type A (Homo sapiens) (UniProt P32238). The experiment in a line: CCK1 (CCKA) (h) CEREP ligand profiling. To be noted: filed as agonist, Compound concentration 10.0 uM.
The target in test [5] is Ephrin type-A receptor 8 (Homo sapiens) (UniProt P29322). To be noted: Compound concentration 1000.0 nM.

Structures are written as SMILES.

Sequence of Histone acetyltransferase type B catalytic subunit (Homo sapiens) (O14929 2-419 limits assumed): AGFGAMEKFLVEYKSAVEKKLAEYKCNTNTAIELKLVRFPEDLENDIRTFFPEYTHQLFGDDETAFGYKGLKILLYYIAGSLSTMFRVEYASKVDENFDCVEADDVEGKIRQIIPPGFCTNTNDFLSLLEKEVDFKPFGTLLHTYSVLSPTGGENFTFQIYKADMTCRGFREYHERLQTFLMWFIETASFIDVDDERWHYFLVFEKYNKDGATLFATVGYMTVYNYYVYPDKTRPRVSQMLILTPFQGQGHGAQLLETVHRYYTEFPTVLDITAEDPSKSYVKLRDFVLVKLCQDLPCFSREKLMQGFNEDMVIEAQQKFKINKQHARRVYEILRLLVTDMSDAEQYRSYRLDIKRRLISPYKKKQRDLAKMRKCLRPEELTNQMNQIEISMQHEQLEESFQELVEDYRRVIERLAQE
Sequence of Ephrin type-A receptor 8 (Homo sapiens) (P29322 whole entry): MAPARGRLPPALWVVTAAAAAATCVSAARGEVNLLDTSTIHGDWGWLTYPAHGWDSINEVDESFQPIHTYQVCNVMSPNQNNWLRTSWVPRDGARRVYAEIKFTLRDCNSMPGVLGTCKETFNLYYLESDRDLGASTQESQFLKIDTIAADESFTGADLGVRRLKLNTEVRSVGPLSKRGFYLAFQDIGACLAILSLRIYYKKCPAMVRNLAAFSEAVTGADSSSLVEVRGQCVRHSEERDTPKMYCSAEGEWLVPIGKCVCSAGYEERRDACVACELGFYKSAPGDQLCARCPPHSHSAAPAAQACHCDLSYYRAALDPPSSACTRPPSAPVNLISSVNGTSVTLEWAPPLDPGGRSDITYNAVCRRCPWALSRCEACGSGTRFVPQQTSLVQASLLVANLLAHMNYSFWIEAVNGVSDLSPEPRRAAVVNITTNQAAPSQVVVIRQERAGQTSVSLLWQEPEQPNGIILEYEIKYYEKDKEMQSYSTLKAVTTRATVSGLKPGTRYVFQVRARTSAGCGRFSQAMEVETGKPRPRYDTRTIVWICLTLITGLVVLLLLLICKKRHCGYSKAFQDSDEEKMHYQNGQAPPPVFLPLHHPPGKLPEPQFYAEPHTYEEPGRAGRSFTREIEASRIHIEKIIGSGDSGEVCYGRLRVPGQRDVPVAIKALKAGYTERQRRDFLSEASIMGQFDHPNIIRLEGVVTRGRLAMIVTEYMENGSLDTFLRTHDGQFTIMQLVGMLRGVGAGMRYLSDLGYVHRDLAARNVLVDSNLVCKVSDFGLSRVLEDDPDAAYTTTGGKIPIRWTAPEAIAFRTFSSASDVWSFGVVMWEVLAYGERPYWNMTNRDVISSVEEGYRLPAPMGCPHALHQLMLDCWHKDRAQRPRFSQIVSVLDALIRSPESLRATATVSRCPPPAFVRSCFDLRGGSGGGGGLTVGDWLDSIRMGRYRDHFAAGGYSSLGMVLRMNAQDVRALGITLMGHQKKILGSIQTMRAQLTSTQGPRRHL
Sequence of Adenosine receptor A1 (Homo sapiens) (P30542 whole entry): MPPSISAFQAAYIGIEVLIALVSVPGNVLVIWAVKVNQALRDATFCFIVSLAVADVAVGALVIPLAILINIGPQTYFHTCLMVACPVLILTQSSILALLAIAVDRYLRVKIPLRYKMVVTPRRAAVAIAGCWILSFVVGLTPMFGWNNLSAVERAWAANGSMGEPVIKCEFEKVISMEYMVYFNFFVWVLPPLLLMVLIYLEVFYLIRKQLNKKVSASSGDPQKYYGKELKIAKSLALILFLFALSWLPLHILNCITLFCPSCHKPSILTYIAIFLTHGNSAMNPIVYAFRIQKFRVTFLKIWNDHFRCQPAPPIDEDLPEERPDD
Sequence of Cyclin-dependent kinase-like 3 (Homo sapiens) (Q8IVW4 whole entry, looked up): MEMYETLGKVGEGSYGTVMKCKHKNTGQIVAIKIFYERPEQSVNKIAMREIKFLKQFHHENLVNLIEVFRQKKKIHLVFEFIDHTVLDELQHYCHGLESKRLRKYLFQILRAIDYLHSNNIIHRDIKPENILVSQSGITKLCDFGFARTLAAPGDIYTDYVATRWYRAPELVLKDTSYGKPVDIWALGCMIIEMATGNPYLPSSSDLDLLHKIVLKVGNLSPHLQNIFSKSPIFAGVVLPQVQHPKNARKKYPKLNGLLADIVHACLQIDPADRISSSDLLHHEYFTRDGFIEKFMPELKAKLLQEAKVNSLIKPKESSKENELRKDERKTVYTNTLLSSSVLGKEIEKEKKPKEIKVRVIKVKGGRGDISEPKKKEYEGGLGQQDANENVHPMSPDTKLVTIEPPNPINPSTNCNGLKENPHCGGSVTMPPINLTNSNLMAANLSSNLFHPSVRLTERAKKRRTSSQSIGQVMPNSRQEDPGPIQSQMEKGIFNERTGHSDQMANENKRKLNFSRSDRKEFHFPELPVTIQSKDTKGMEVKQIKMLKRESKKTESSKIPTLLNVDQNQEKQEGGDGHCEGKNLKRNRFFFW
Sequence of Cholecystokinin receptor type A (Homo sapiens) (P32238 whole entry): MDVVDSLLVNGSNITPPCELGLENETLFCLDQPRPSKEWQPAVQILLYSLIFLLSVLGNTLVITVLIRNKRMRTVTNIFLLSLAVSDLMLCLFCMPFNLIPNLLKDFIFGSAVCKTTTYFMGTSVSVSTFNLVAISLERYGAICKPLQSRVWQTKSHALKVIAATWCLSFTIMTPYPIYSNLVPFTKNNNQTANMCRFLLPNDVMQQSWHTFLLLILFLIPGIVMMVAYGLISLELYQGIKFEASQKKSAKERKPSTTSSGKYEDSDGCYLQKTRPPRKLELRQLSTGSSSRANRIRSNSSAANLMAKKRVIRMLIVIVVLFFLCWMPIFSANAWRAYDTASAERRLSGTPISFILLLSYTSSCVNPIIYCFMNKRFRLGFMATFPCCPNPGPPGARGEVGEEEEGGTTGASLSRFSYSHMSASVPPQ

As a reminder, the inhibition is the drop in the measured response relative to a control, in per cent. Turning to `CNC(=O)Nc1ccc2c(c1)CC[C@@]21OC(=O)N(CC(=O)N(Cc2ccc(F)cc2)[C@@H](C)C(F)(F)F)C1=O` [A-485], the “Cell Proliferation EC50” value with HCC1806 was 2.9512 µM; in the test with NCI-H1930, above 10 µM; in the test with Calu-6, 8.573 µM; in the test with NCI-H596, above 10 µM; with NCI-H1417, above 10 µM; with DOHH-2, 0.7512 µM. The “Cell Proliferation EC50” value was 2.687 µM in the test with Malme-3M; above 10 µM in the test on MOLT-4; above 10 µM with HCC38; 2.367 µM in the test on NCI-H1693; 0.5893 µM with RCK8; above 10 µM with SK-MEL-2. Further, the “Cell Proliferation EC50” value with A-375 is above 10 µM; with NCI-H146, 0.4 µM; in the test on OCI-Ly3, 0.4892 µM; with OCI-Ly1, 0.9405 µM. The inhibition in test [1] is -1.9%; in test [2], 9%.

The term residual activity denotes the activity still measured, relative to the control. Turning to `CNC(=O)Nc1ccc2c(c1)[C@@]1(CC2)OC(=O)N(CC(=O)N(Cc2ccc(F)cc2)[C@@H](C)C(F)(F)F)C1=O` [A-486], the residual activity was 92% in test [3] and 96% in test [5]. In addition, the inhibition in test [4] is 1%.
